Results taken from patent publication US6407288B1, “Naphthylsalicylanilides as antimicrobial and antiinflammatory agents” (The Research Foundation of State University of New York, priority 2000, dated 2002).
≈ marks a conversion by molar mass, not a printed value.

How the values were obtained:
P. ging 381 = experiment: MIC microdilution, gram negative; format: cell-based, Porphyromonas gingivalis; settings: for MIC: Porphyromonas gingivalis, 381, Table 3, Gram Negative; for MIC P. ging 381: Table 3 printed a second time, Gram Negative
Outline: (§1)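 Modified NCCLS broth microdilution; anaerobes grown 48-72 hrs in half-strength BHI with yeast extract, hemin and menadione, aerobes in full-strength BHI, inoculum ~1×10^8 CFU/mL (10 μL/assay). Drugs from DMSO stock, final 50 to 0.05 μg/assay, duplicate, 24 to 48 hrs (anaerobic: 5% CO2, 10% H2, N2); MIC = lowest concentration without visible growth.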

Pg 53977 = experiment: MIC microdilution, gram negative; format: cell-based, Porphyromonas gingivalis; settings: for MIC: Porphyromonas gingivalis, 53977, Table 3, Gram Negative; for MIC Pg 53977: Table 3 printed a second time, Gram Negative
Outline: as §1

Fuso. 25586 = experiment: MIC microdilution, gram negative; format: cell-based, Fusobacterium nucleatum; settings: for MIC: Fusobacterium nucleatum, Table 3, Gram Negative; for MIC Fuso. 25586: Table 3 printed a second time, Gram Negative
Method: (§2) The MIC's for the compounds were determined by a modified microdilution tube dilution method described in “Methods for Dilution Antimicrobial Susceptibility Tests for Bacteria that Grow Aerobically” (National Committee for Clinical Laboratory Standards Approved Standards, 1997, NCCLS document M7-A4). In general the modifications were made because of the unique growth requirements for the fastidious oral organisms and for those bacteria that require anaerobic conditions. Reference is also made to “Methods for Antimicrobial Susceptibility of Anaerobic Bacteria” (National Committee for Clinical Laboratory Standards Approved Standards, 1997, NCCLS document M11-A4). Briefly, the methods were as follows. Cultures were grown for 18-24hrs (aerobic bacteria) or 48-72 hrs (anaerobic bacteria) in the appropriate medium. For aerobic bacteria full strength brain heart infusion medium (BHI, Difco) was used. For anaerobic bacteria, half strength BHI (18.5 g/L) was supplemented by adding yeast extract (10 g/L), hemin (0.29 mL of a stock solution containing 0.1 g/200 mL dH2O) and menadione (15 mL of a stock solution containing 0.15 mL in 30 mL 95% EtOH) was used. Initial cultures were diluted to approximately 1×10^8 CFU/mL for use as an inoculum. Each assay received 10 μL of the inoculum. The drugs were prepared from a stock solution contained in dimethyl sulfoxide (DMSO) and diluted into the culture medium. Final concentrations of the drugs ranged from 50 to 0.05 μg/assay. The tests were run in duplicate and were incubated appropriately with regard to oxygen requirements for 24 to 48 hrs as required. Anaerobic incubation was an atmosphere of 5% CO2, 10% H2, with the balance N2. The lowest concentration of an antimicrobial agent at which no visible growth is noted was referred to as the MIC. […] The method used was the same as described in Example 1.

S. mutans = experiment: MIC microdilution, gram positive; format: cell-based, Streptococcus mutans; settings: Streptococcus mutans; Table 1, Gram Positive
Outline: (§3)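 Modified NCCLS broth microdilution: aerobes in full-strength BHI, anaerobes in half-strength BHI with yeast extract, hemin and menadione, each well given 10 µL of a ~1×10^8 CFU/mL inoculum. Drugs ranged 50–0.05 µg/assay, run in duplicate, incubated 24–48 h, anaerobically under 5% CO2/10% H2/N2 where needed. MIC was the lowest concentration with no visible growth.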

B. fragilis = experiment: MIC microdilution, gram negative; format: cell-based, Bacteroides fraglis; settings: for MIC: Bacteroides fragilis, Table 3, Gram Negative; for MIC B. fragilis: Table 3 printed a second time, Gram Negative
Method: as §2

S.salivarius = experiment: MIC microdilution, gram positive; format: cell-based, Streptococcus salivarius; settings: Streptococcus salivarius; Table 1, Gram Positive
Outline: as §3

S. sanguis = experiment: MIC microdilution, gram positive; format: cell-based, Streptococcus sanguis; settings: Streptococcus; Table 1, Gram Positive
Outline: as §3

S. species R = experiment: Staphylococcus MIC; format: cell-based, staphylococcus species R; settings: for MIC: Staphylococcus, second Table 5 (Example 5), strain 00-045-1209
Method: The MIC's for the compounds were determined by a modified microdilution tube dilution method described in “Methods for Dilution Antimicrobial Susceptibility Tests for Bacteria that Grow Aerobically” (National Committee for Clinical Laboratory Standards Approved Standards, 1997, NCCLS document M7-A4). In general the modifications were made because of the unique growth requirements for the fastidious oral organisms and for those bacteria that require anaerobic conditions. Reference is also made to “Methods for Antimicrobial Susceptibility of Anaerobic Bacteria” (National Committee for Clinical Laboratory Standards Approved Standards, 1997, NCCLS document M11-A4).
Briefly, the methods were as follows. Cultures were grown for 18-24hrs (aerobic bacteria) or 48-72 hrs (anaerobic bacteria) in the appropriate medium. For aerobic bacteria full strength brain heart infusion medium (BHI, Difco) was used. For anaerobic bacteria, half strength BHI (18.5 g/L) was supplemented by adding yeast extract (10 g/L), hemin (0.29 mL of a stock solution containing 0.1 g/200 mL dH2O) and menadione (15 mL of a stock solution containing 0.15 mL in 30 mL 95% EtOH) was used. Initial cultures were diluted to approximately 1×10^8 CFU/mL for use as an inoculum. Each assay received 10 μL of the inoculum. The drugs were prepared from a stock solution contained in dimethyl sulfoxide (DMSO) and diluted into the culture medium. Final concentrations of the drugs ranged from 50 to 0.05 μg/assay. The tests were run in duplicate and were incubated appropriately with regard to oxygen requirements for 24 to 48 hrs as required. Anaerobic incubation was an atmosphere of 5% CO2, 10% H2, with the balance N2. The lowest concentration of an antimicrobial agent at which no visible growth is noted was referred to as the MIC.
This embodiment describes the sensitivity of various staphylococcus strains to the compounds of the present invention. The staphylococcus species R is a strain 00-045-1209 from the Children's Hospital in Buffalo. It was isolated from the peritoneal cavity (fluid culture) of an individual. It was coagulase negative. The sensitivity of this strain was tested agaisnt several known antibiotics.

Lact 7496 = experiment: MIC microdilution, gram positive; format: cell-based, Lactobacillus rhamnosus (casei); settings: Lacticaseibacillus rhamnosus, 7496; Table 2, Gram Positive
Method: The MIC's for the compounds were determined by a modified microdilution tube dilution method described in “Methods for Dilution Antimicrobial Susceptibility Tests for Bacteria that Grow Aerobically” (National Committee for Clinical Laboratory Standards Approved Standards, 1997, NCCLS document M7-A4). In general the modifications were made because of the unique growth requirements for the fastidious oral organisms and for those bacteria that require anaerobic conditions. Reference is also made to “Methods for Antimicrobial Susceptibility of Anaerobic Bacteria” (National Committee for Clinical Laboratory Standards Approved Standards, 1997, NCCLS document M11-A4). Briefly, the methods were as follows. Cultures were grown for 18-24hrs (aerobic bacteria) or 48-72 hrs (anaerobic bacteria) in the appropriate medium. For aerobic bacteria full strength brain heart infusion medium (BHI, Difco) was used. For anaerobic bacteria, half strength BHI (18.5 g/L) was supplemented by adding yeast extract (10 g/L), hemin (0.29 mL of a stock solution containing 0.1 g/200 mL dH2O) and menadione (15 mL of a stock solution containing 0.15 mL in 30 mL 95% EtOH) was used. Initial cultures were diluted to approximately 1×10^8 CFU/mL for use as an inoculum. Each assay received 10 μL of the inoculum. The drugs were prepared from a stock solution contained in dimethyl sulfoxide (DMSO) and diluted into the culture medium. Final concentrations of the drugs ranged from 50 to 0.05 μg/assay. The tests were run in duplicate and were incubated appropriately with regard to oxygen requirements for 24 to 48 hrs as required. Anaerobic incubation was an atmosphere of 5% CO2, 10% H2, with the balance N2. The lowest concentration of an antimicrobial agent at which no visible growth is noted was referred to as the MIC.

SMILES	MIC (P. ging 381)	MIC P. ging 381 (P. ging 381)	MIC (Pg 53977)	MIC Pg 53977 (Pg 53977)	MIC (Fuso. 25586)	MIC (S. mutans)	MIC (B. fragilis)	MIC B. fragilis (B. fragilis)	MIC (S.salivarius)	MIC (S. sanguis)	MIC (S. species R)	MIC (Lact 7496)	MIC Fuso. 25586 (Fuso. 25586)	sensitivity of staphylococcus species R to the compounds (S. species R; statement in text referring to Table 5)
CCCCc1ccc(C(=O)c2ccc(O)c(C(=O)Nc3cccc(C(F)(F)F)c3)c2)cc1 [BBAmF, reference compound]	< 0.4 mg/L	<0.4 micrograms/ml	< 0.4 mg/L	<0.4 micrograms/ml	> 50 mg/L	> 50 mg/L	> 50 mg/L	NE (NE indicates that the drug was not effective at a concentration >50 micrograms/ml)	> 50 mg/L	> 50 mg/L	> 50 mg/L	6.3 mg/L (≈ 14.3 µM)	NE (NE indicates that the drug was not effective at a concentration >50 micrograms/ml)	–
N#Cc1cccc(NC(=O)c2cc(C(=O)c3ccc(-c4ccccc4)cc3)ccc2O)c1 [BPAmC, reference compound]	< 0.4 mg/L	<0.4 micrograms/ml	< 0.4 mg/L	<0.4 micrograms/ml	> 50 mg/L	> 50 mg/L	50 mg/L (≈ 119 µM)	50 micrograms/ml	> 50 mg/L	> 50 mg/L	> 50 mg/L	12.5 mg/L (≈ 29.9 µM)	NE (NE indicates that the drug was not effective at a concentration >50 micrograms/ml)	–
N#Cc1cccc(NC(=O)c2cc(C(=O)c3cccc4ccccc34)ccc2O)c1 [NA1mC]	0.4 mg/L (≈ 1.02 µM)	0.4 micrograms/ml	0.8 mg/L (≈ 2.04 µM)	0.8 micrograms/ml	2.5 mg/L (≈ 6.37 µM)	3.1 mg/L (≈ 7.9 µM)	> 50 mg/L	NE (NE indicates that the drug was not effective at a concentration >50 micrograms/ml)	50 mg/L (≈ 127 µM)	6.3 mg/L (≈ 16.1 µM)	25 mg/L (≈ 63.7 µM)	3.1 mg/L (≈ 7.9 µM)	2.5 micrograms/ml	–

The next lines start with results.

MIC (P. ging 381)	MIC P. ging 381 (P. ging 381)	MIC (Pg 53977)	MIC Pg 53977 (Pg 53977)	MIC (Fuso. 25586)	MIC (S. mutans)	MIC (B. fragilis)	MIC B. fragilis (B. fragilis)	MIC (S.salivarius)	MIC (S. sanguis)	MIC (S. species R)	MIC (Lact 7496)	SMILES	MIC Fuso. 25586 (Fuso. 25586)	sensitivity of staphylococcus species R to the compounds (S. species R; statement in text referring to Table 5)
< 0.4 mg/L	<0.4 micrograms/ml	< 0.4 mg/L	<0.4 micrograms/ml	> 50 mg/L	> 50 mg/L	50 mg/L (≈ 108 µM)	50 micrograms/ml	> 50 mg/L	> 50 mg/L	> 50 mg/L	6.3 mg/L (≈ 13.7 µM)	O=C(c1ccc(-c2ccccc2)cc1)c1ccc(O)c(C(=O)Nc2cccc(C(F)(F)F)c2)c1 [BPAmF, reference compound]	NE (NE indicates that the drug was not effective at a concentration >50 micrograms/ml)	–
< 0.1 mg/L	<0.1 micrograms/ml	< 0.1 mg/L	<0.1 micrograms/ml	3.1 mg/L (≈ 7.12 µM)	0.8 mg/L (≈ 1.84 µM)	3.1 mg/L (≈ 7.12 µM)	3.1 micrograms/ml	3.1 mg/L (≈ 7.12 µM)	0.8 mg/L (≈ 1.84 µM)	1.6 mg/L (≈ 3.67 µM)	0.4 mg/L (≈ 0.919 µM)	O=C(Nc1cccc(C(F)(F)F)c1)c1cc(C(=O)c2cccc3ccccc23)ccc1O [NA1mF]	3.1 micrograms/ml	highest effect
